Results taken from US12338219B2, “Antimalarial agents” (Merck Sharp & Dohme LLC, priority 2019, dated 2025).

System: parasites (ring stage parasites, parasite growth)
Test: Parasite LDH growth assay (Parasite Assay), antiparasite potency
Format: cell-based
Conditions: 72 hours growth, LDH readout
Procedure, shortened: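 Ring-stage culture was adjusted to 0.7% parasitemia and 2% haematocrit in bicarbonate-buffered RPMI-Hepes with heat-inactivated human serum and 0.5% albumax, then added to compound. Plates were incubated 72 h at 37 °C in gassed humidified boxes, frozen at −80 °C overnight and thawed, and growth was read by LDH assay.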

SMILES | EC50 (Table 3) [nM] | EC50 (72 h, Table 3) [nM] | other results
COCC[C@H]([C@@H]1C[C@H]1C(=O)NC1CC(C)(COC)Oc2ccccc21)N1C(=N)NC(C)(C)CC1=O (single isomer, unassigned) [Example 82B] | 57 | – | –
CC1(C)CC(=O)N([C@H](c2cncc(Cl)c2)[C@@H]2C[C@H]2C(=O)N[C@H]2CC(C)(C)Oc3ccccc32)C(=N)N1 [Example 58B] | – | 1 | –
CCC1(CC)CC(=O)N(C[C@@H]2C(C)[C@H]2C(=O)N[C@@H]2c3ccccc3OCC2(C)O)C(=N)N1 (single isomer, unassigned) [Example 35A] | 85 | – | –
CC[C@]1(C)CC(=O)N([C@H](c2cncc(F)c2)[C@@H]2C[C@H]2C(=O)N[C@@H]2c3ccccc3OCC2(C)C)C(=N)N1 [Example 102A] | – | 0.8 | –
CC1(C)CC(=O)N([C@@H](c2ccc(C#N)cc2)[C@@H]2C[C@H]2C(=O)N[C@H]2C[C@H](C(F)(F)F)Oc3ccccc32)C(=N)N1 [Example 47A] | – | 155 | –
COCC1(C)CC(NC(=O)[C@@H]2C[C@H]2[C@@H](c2cccnc2)N2C(=N)NC(C)(C)CC2=O)c2ccccc2O1 (single isomer, unassigned) [Example 108B] | 3.7 | – | –
CC1(C)CC(=O)N([C@H](c2cccnc2)[C@@H]2C[C@H]2C(=O)NC2CC(C)(C)Oc3c(F)cccc32)C(=N)N1 (stereo partly drawn) [Example 93B] | 2.4 | – | –
COCC[C@H]([C@@H]1C[C@H]1C(=O)NC1CC(C)(COC)Oc2ccccc21)N1C(=N)NC(C)(C)CC1=O (single isomer, unassigned) [Example 82D] | 27 | – | –
CCC1(CC)CC(=O)N(C(CC(C)OC)[C@@H]2C[C@H]2C(=O)N[C@@H]2CC(C)(C)Oc3ccccc32)C(=N)N1 (single isomer, unassigned) [Example 143B] | – | – | EC50 (Table 4 (unit inferred)): 2.4 nM
CCC1(CC)CC(=O)N(CC2CC2C(=O)N[C@H]2CCOc3ccccc32)C(=N)N1 (stereo partly drawn) [Example 4D] | 91 | – | –
CC1(C)CC(=O)N(C[C@@H]2C[C@H]2C(=O)N[C@H]2CC(C3CC3)Oc3ccccc32)C(=N)N1 (stereo partly drawn) [Example 140B] | 280 | – | –
CC[C@]1(C)CC(=O)N([C@@H](CCOC)[C@@H]2C[C@H]2C(=O)N[C@H]2C[C@H](C(F)(F)F)Oc3ccccc32)C(=N)N1 [Example 62A] | – | 31 | –
CC1(C)CC(=O)N(C[C@@H]2C[C@H]2C(=O)N[C@H]2CC(C)(C)Oc3cc(Cl)ccc32)C(=N)N1 [Example 90] | – | 225 | –
COCC[C@H]([C@@H]1C[C@H]1C(=O)N[C@H]1CC(C)(C)Oc2ccc(C(F)(F)F)cc21)N1C(=N)NC(C)(C)CC1=O [Example 110B] | – | 7.2 | –
COCC[C@H]([C@@H]1C[C@H]1C(=O)NC1CC2(CCC2)Oc2ccccc21)N1C(=N)NC(C)(C)CC1=O (stereo partly drawn) [Example 131A] | – | 6.8 | –
Cc1ccc2c(c1)OC(C)(C)C[C@H]2NC(=O)[C@@H]1C[C@H]1[C@@H](c1cccnc1)N1C(=N)NC(C)(C)CC1=O [Example 85A] | – | 2.4 | –
CCC1(CC)CC(=O)N([C@@H](c2cccnc2)[C@@H]2C(C)[C@H]2C(=O)N[C@H]2C[C@H](C(F)(F)F)Oc3ccccc32)C(=N)N1 (stereo partly drawn) [Example 55B] | – | 180 | –
CC[C@]1(C)CC(=O)N([C@H](CCOC)[C@@H]2C[C@H]2C(=O)N[C@H]2CC(C)(C)Oc3ccc(Cl)cc32)C(=N)N1 [Example 124] | – | 0.8 | –
